Consider two compounds from patent publication US9850343B2, “Method for producing liquid crystalline polyester, and liquid crystalline polyester” (TORAY Industries, Inc., priority 2013, dated 2017).

The data set is described as follows: Acid dissociation constant (pKa) in aqueous sulfonic acid solution. The format is physicochemical. Particulars: aqueous sulfonic acid solution titrated at 25° C. with aqueous sodium hydroxide; from pH at 50% neutralization. The protocol: Examples of the method for measuring pKa include a method in which an aqueous aliphatic sulfonic acid solution is titrated with a titrant such as sodium hydroxide at 25° C., and pKa is calculated from the pH value at the time point when 50% neutralization was achieved.
(7) Acid Dissociation Constant (pKa) in Aqueous Sulfonic Acid Solution
The aqueous sulfonic acid solution used in each of Examples and Comparative Examples was subjected to titration at 25° C. using an aqueous sodium hydroxide solution, and the acid dissociation constant was calculated based on the pH value at the time point when 50% neutralization was achieved.

For orientation: pKa means the negative logarithm of the acid dissociation constant. Lower therefore signals a stronger acid or weaker base. With `CCS(=O)(=O)O` [ethanesulfonic acid], the pKa was -1.3.
The value for `CCCCCCCCCCCCS(=O)(=O)O` [n-dodecylsulfonic acid] was 0.3.
